We go through 16 compounds from US12331046B2, “CTPS1 inhibitors and uses thereof” (Nimbus Clotho, Inc., priority 2020, dated 2025).

Where “and” joins values, the source holds several entries; their conditions need not be identical. Equal entries are not always repeated.

The term IC50 denotes the concentration that inhibits the measured activity by half. A low value points to higher potency.

Sequence of human CTPS1 (P17812 whole entry): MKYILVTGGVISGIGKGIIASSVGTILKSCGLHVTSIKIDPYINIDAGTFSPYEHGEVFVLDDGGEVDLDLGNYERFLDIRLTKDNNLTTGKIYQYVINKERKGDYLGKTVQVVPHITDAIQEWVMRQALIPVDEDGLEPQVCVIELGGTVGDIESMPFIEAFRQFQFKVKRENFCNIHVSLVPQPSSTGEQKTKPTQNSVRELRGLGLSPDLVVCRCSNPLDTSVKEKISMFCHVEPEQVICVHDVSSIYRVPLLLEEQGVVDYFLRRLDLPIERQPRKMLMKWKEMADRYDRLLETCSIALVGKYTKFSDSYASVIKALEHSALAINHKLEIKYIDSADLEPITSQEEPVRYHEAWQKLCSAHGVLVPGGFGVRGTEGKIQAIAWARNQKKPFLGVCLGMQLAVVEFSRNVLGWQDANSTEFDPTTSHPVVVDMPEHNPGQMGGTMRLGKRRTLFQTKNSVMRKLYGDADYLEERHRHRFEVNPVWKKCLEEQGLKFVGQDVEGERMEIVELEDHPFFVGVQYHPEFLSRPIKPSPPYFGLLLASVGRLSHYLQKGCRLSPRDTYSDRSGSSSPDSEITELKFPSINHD

The assay addresses human CTPS1 (Homo sapiens (Human), UniProt P17812). Nature of the assay: hCTPS1 biochemical assay (ADP-Glo). To be noted: hCTPS1 25 nM, ATP 120 uM, UTP 160 uM, GTP 60 uM, L-Glutamine 100 uM, 25 degrees C. Background: ADP-Glo turns the ADP formed in a reaction into a luminescent signal.
`CCOc1cncc(-c2cnc(C(=O)N3CCC[C@H]3c3ccnc(NS(=O)(=O)C4CC4)n3)s2)n1` [I-271, N-[4-[(2S)-1-[5-(6-ethoxypyrazin-2-yl)-1,3-thiazole-2-carbonyl]pyrrolidin-2-yl]pyrimidin-2-yl]cyclopropanesulfonamide] showed an IC50 of under 100 nM.

`CCOc1cncc(-c2cnc(C(=O)N[C@H](C)c3cccc(NS(=O)(=O)C(F)F)c3)s2)n1` [I-272, N-[(1R)-1-[3-(difluoromethanesulfonamido)phenyl]ethyl]-5-(6-ethoxypyrazin-2-yl)-1,3-thiazole-2-carboxamide] returned an IC50 of under 100 nM.

With `CCOc1cncc(-c2cnc(C(=O)N[C@@H](C)c3cccc(NS(=O)(=O)C(F)F)c3)s2)n1` [I-273, N-[(1S)-1-[3-(difluoromethanesulfonamido)phenyl]ethyl]-5-(6-ethoxypyrazin-2-yl)-1,3-thiazole-2-carboxamide], the half-maximal inhibitory concentration (IC50) is under 100 nM.

With `CCOc1cncc(-n2cc(C(=O)NC3(c4cccc(NS(=O)(=O)C(F)F)c4)CC3)cn2)n1` [I-274, N-[1-[3-(difluoromethanesulfonamido)phenyl]cyclopropyl]-1-(6-ethoxypyrazin-2-yl)pyrazole-4-carboxamide], the IC50 is under 100 nM.

`CCOc1cncc(-n2cnc(C(=O)N3CCC[C@@H]3c3ccnc(NS(=O)(=O)C4CC4)n3)c2)n1` [I-275, N-[4-[(2R)-1-[1-(6-ethoxypyrazin-2-yl)imidazole-4-carbonyl]pyrrolidin-2-yl]pyrimidin-2-yl]cyclopropanesulfonamide] showed an IC50 of at least 1000 nM.

Take `CCOc1cncc(-n2cnc(C(=O)N3CCC[C@H]3c3ccnc(NS(=O)(=O)C4CC4)n3)c2)n1` [I-276, N-[4-[(2S)-1-[1-(6-ethoxypyrazin-2-yl)imidazole-4-carbonyl]pyrrolidin-2-yl]pyrimidin-2-yl]cyclopropanesulfonamide]: the IC50 is under 100 nM.

Compound `CCOc1cncc(-c2cnc(C(=O)N[C@H](CC)c3cc(NS(=O)(=O)C4CC4)ccn3)s2)n1` [I-277] yielded an IC50 of under 100 nM. To `CCOc1cncc(-c2cnc(C(=O)N[C@@H](CC)c3cc(NS(=O)(=O)C4CC4)ccn3)s2)n1` [I-278] belongs under 100 nM; to `Cc1nc(C(=O)NCc2cc(NS(=O)(=O)C3CC3)ccn2)cnc1N1CCC12CCCCC2` [I-279], under 100 nM.

Consider `CCOc1cncc(-c2cccc(C(=O)NCc3cccc(NS(=O)(=O)C(F)F)c3)c2)n1` [I-280, N-[[3-(difluoromethanesulfonamido)phenyl]methyl]-3-(6-ethoxypyrazin-2-yl)benzamide], for which the IC50 was at least 1000 nM. Consider `CCOc1cncc(-n2ccc(C(=O)NC3(c4cccc(NS(=O)(=O)C(F)F)c4)CC3)n2)n1` [I-282, N-[1-[3-(difluoromethanesulfonamido)phenyl]cyclopropyl]-1-(6-ethoxypyrazin-2-yl)pyrazole-3-carboxamide], for which the IC50 was < 100 nM and ≥ 1000 nM. As to `CCOc1cncc(-n2cnc(C(=O)NC3(c4cccc(NS(=O)(=O)C(F)F)c4)CC3)c2)n1` [I-283, N-[1-[3-(difluoromethanesulfonamido)phenyl]cyclopropyl]-1-(6-ethoxypyrazin-2-yl)imidazole-4-carboxamide], the IC50 is under 100 nM.

As to `CCOc1cncc(-c2ccc(C(=O)N3CCC[C@@H]3c3ccnc(NS(=O)(=O)C4CC4)n3)c(F)c2)n1` [I-285, N-[4-[(2R)-1-[4-(6-ethoxypyrazin-2-yl)-2-fluorobenzoyl]pyrrolidin-2-yl]pyrimidin-2-yl]cyclopropanesulfonamide], the IC50 is 100 to 1000 nM. To `CCOc1cncc(-c2ccc(C(=O)N3CCC[C@H]3c3ccnc(NS(=O)(=O)C4CC4)n3)c(F)c2)n1` [I-286, N-[4-[(2S)-1-[4-(6-ethoxypyrazin-2-yl)-2-fluorobenzoyl]pyrrolidin-2-yl]pyrimidin-2-yl]cyclopropanesulfonamide] belongs under 100 nM; to `CCOc1cncc(-c2ccc(NC(=O)C(NC(=O)CCOCCNC(=O)OC(C)(C)C)c3csc(NS(=O)(=O)C4CC4)n3)cc2)n1` (stereo not shown) [Z-7, tert-butyl 2-(3-(1-(2-(cyclopropanesulfonamido)thiazol-4-yl)-2-(4-(6-ethoxypyrazin-2-yl)phenylamino)-2-oxoethylamino)-3-oxopropoxy)ethylcarbamate], under 100 nM. `CCOc1cncc(-c2ccc(NC(=O)C(NC(=O)CCOCCOCCNC(=O)OC(C)(C)C)c3csc(NS(=O)(=O)C4CC4)n3)cc2)n1` (stereo not shown) [Z-8, tert-butyl 2-(2-(3-(1-(2-(cyclopropanesulfonamido)thiazol-4-yl)-2-(4-(6-ethoxypyrazin-2-yl)phenylamino)-2-oxoethylamino)-3-oxopropoxy)ethoxy)ethylcarbamate] had an IC50 of under 100 nM.
